Source: paper PMC9670689 (ACS Omega, 2022)
In brackets after ≈: the same amount, converted by molar mass.

What was measured:
[1] = tested on: Seasonal influenza A/Egypt/NRC098/2019(H1N1); assay: microbe, parasite or virus in culture; assay type: cell-based, seasonal human influenza A/H1N1 virus; conditions: H1N1, MDCK, in Homo sapiens
[2] = tested on: neuraminidase; assay: Colorimetric neuraminidase inhibition assay; assay type: biochemical
[3] = tested on: MDCK cells

CC1=C2[C@H]3OC(=O)[C@@H](C)[C@@H]3CC[C@@]2(C)C=CC1=O [santonin]
IC50 [1]: 2.91 µg/mL (≈ 11.8 µM)
neuraminidase inhibition activity (in words) ([2]; all tested concentrations (10 mM to 1 μM), compared to zanamivir): dose-dependant neuraminidase inhibition activities
neuraminidase activity ([2]; following treatment with 1 μM): 0.65 ± 0.18 units/mL
neuraminidase activity ([2]; following treatment with 10 μM): 0.42 ± 0.08 units/mL
neuraminidase activity ([2]; following treatment with 100 μM): 0.41 ± 0.06 units/mL
neuraminidase activity ([2]; following treatment with 1 mM): 0.35 ± 0.11 units/mL
neuraminidase activity ([2]; following treatment with 10 mM): 0.14 ± 0.097 units/mL
toxic effect in MDCK cells (in words) [3]: slightly toxic effect
